Source: publication PMC7785057 (ACS catalysis, 2020)

Molecular target: NmSiaDW (Neisseria meningitidis, UniProt O33390)
Assay: sialyltransferase kinetics, varied acceptor
Format: biochemical
Details: α2–6-sialyltransferase activity, fixed concentration of CMP-Neu5Ac

## CC(=O)N[C@H]1[C@H]([C@H](O)[C@H](O)CO)O[C@@](OC[C@H]2O[C@H](O[C@H]3C[C@](OCCCNC(=O)OCc4ccccc4)(C(=O)O)O[C@@H]([C@H](O)[C@H](O)CO)[C@@H]3NC(C)=O)[C@H](O)[C@@H](O)[C@H]2O)(C(=O)O)C[C@@H]1O[C@H]1O[C@H](CO)[C@H](O)[C@H](O)[C@H]1O [G4]
  Km: 240 ± 40 µM
